Laboratory results published in ChEMBL document CHEMBL1154261, “Halogenated fatty acid amides and cyclic depsipeptides from an eastern Caribbean collection of the cyanobacterium Lyngbya majuscula” (J Nat Prod, 2009).
Starred links: 1 amine or outer side, 2 acyl side, 3 side chain; linkers in the order of their positions; H or OH if unused. Non-standard residues stand in square brackets, D forms with d. Residues, ends and D or L forms follow the SMILES beside them. X1 = CCC[C@@H](N[*:1])[C@H](C)C(=O)[*:2]; Met(O2) = CS(=O)(=O)CC[C@H](N)C(=O)O; dNMeF = CN[C@H](Cc1ccccc1)C(=O)O; NMeL = CN[C@@H](CC(C)C)C(=O)O; dHiv = CC(C)[C@@H](O)C(=O)O

Assays:
HEK293 [1] = assay: Cytotoxicity against HEK293 cells after 48 hrs by resazurin conversion-based fluorometric assay; format: cell-based; conditions: Homo sapiens, HEK293, 48 h
HEK293 [2] = assay: Cytotoxicity against HEK293 cells at 400 nM after 48 hrs by resazurin conversion-based fluorometric assay; format: cell-based; conditions: human, hek293, 48 h, 0.4 µM
Spodoptera exigua = assay: Antilepidopteran activity against beet armyworm neonates assessed as mortality rate at 1.0 mg/ml after 5 days; format: functional

| Structure (SMILES) | IC50 (HEK293 [1]) [µM] | Activity (HEK293 [2]) [%] | Activity (Spodoptera exigua) [%] |
| --- | --- | --- | --- |
| CCC[C@H]1NC(=O)[C@H](C)NC(=O)[C@H](CC(C)C)N(C)C(=O)[C@H](Cc2ccccc2)NC(=O)[C@H](CCS(C)(=O)=O)NC(=O)[C@@H](Cc2ccccc2)N(C)C(=O)[C@@H](C(C)C)OC(=O)[C@H]1C [CARRIEBOWMIDE SULFONE] (cyclo(A[X1][dHiv][dNMeF][Met(O2)]F[NMeL])) | > 50 |  |  |
| COc1cccc2c1C(=O)c1c(O)c3c(c(O)c1C2=O)C[C@@](O)(C(C)=O)C[C@@H]3O[C@H]1C[C@H](N)[C@H](O)[C@H](C)O1 [DAUNORUBICIN] |  | 82 |  |
| C[C@@H]1C(=O)O[C@@H](C(C)(C)O)c2nc(cs2)C(=O)OC(C)(C)[C@H](O)c2nc(cs2)C(=O)O[C@H]1CCCC(C)(Cl)Cl [DEACETYLHECTOCHLORIN] | 6 |  |  |
| C=CCCC(C)C(=O)C(C)CC(C)NC(=O)CCC/C(=C/Cl)CCC (stereo not drawn) [GRENADAMIDE B] | ≥ 100 |  | 38 |
| CCC/C(=C\Cl)CCCC(=O)NC(C)CC(C)C(=O)C(C)CC/C=C/Cl (stereo not drawn) [GRENADAMIDE] | ≥ 100 |  | 50 |
| CC(CC(=O)N(C)[C@@H]1C(=O)N(C)[C@@H](C(C)C)C(=O)N[C@H](C)C(=O)N(C)[C@@H](C)C(=O)N(C)[C@H](Cc2ccccc2)C(=O)N[C@@H](C)C(=O)O[C@@H]1C)C(Cl)Cl (stereo partly drawn) [ITRALAMIDE A] | 54 |  |  |
